Experimental data published in ChEMBL document CHEMBL2429808, “Synthesis, characterization, and cytotoxicity of N-2-hydroxyethyl-substituted azastigmastanes” (Med Chem Res, 2013).

How the values were obtained:
Type in all cases: functional, cell-based
HepG2 = assay: Cytotoxicity against human HepG2 cells after 96 hrs by MTT assay; settings: for IC50: HepG2, 96 h
HCT-116 = assay: Cytotoxicity against human HCT116 cells after 96 hrs by MTT assay; settings: for IC50: HCT-116, 96 h
MCF7 = assay: Cytotoxicity against human MCF7 cells after 96 hrs by MTT assay; settings: for IC50: MCF7, 96 h

Row | Structure (SMILES) | IC50 (HepG2) [µM] | IC50 (HCT-116) [µM] | IC50 (MCF7) [µM] | Activity (HepG2) | Activity (HCT-116) | Activity (MCF7)
1 | CC[C@H](CC[C@@H](C)[C@H]1CC[C@H]2[C@@H]3CC(=O)[C@H]4CCCC[C@]4(C)[C@H]3CC[C@]12C)C(C)C | 5.22 | 4.51 | 3.34 |  |  | 
2 | CC[C@H](CC[C@@H](C)[C@H]1CC[C@H]2[C@@H]3CC(=O)[C@H]4C[C@@H](Cl)CC[C@]4(C)[C@H]3CC[C@]12C)C(C)C | 3.56 | 3.15 | 3.01 |  |  | 
3 | CC[C@H](CC[C@@H](C)[C@H]1CC[C@H]2[C@@H]3CC(=O)N(CCO)[C@H]4C[C@@H](OC(C)=O)CC[C@]4(C)[C@H]3CC[C@]12C)C(C)C | 4.52 | 4.24 | 3.02 | Dose-dependent effect | Dose-dependent effect | Dose-dependent effect
4 | CC[C@H](CC[C@@H](C)[C@H]1CC[C@H]2[C@@H]3CC(=O)N(CCO)[C@H]4CCCC[C@]4(C)[C@H]3CC[C@]12C)C(C)C | 4.68 | 3.96 | 2.98 | Dose-dependent effect | Dose-dependent effect | Dose-dependent effect
5 | COc1cccc2c1C(=O)c1c(O)c3c(c(O)c1C2=O)C[C@@](O)(C(=O)CO)C[C@@H]3O[C@H]1C[C@H](N)[C@H](O)[C@H](C)O1 [DOXORUBICIN] | 2.68 | 2.56 | 2.44 |  |  | 
6 | CC[C@H](CC[C@@H](C)[C@H]1CC[C@H]2[C@@H]3CC(=O)[C@H]4C[C@@H](OC(C)=O)CC[C@]4(C)[C@H]3CC[C@]12C)C(C)C | 4.87 | 5.02 | 3.54 |  |  | 
7 | CC[C@H](CC[C@@H](C)[C@H]1CC[C@H]2[C@@H]3CC(=O)N(CCO)[C@H]4C[C@@H](Cl)CC[C@]4(C)[C@H]3CC[C@]12C)C(C)C | 3.02 | 2.72 | 2.55 | Dose-dependent effect | Dose-dependent effect | Dose-dependent effect
